In patent US12364733B1, “Method for treating septic shock” (Inotrem, priority 2018, dated 2025):
Entries after “also recorded” stand apart in the source; their conditions may differ.

Test system: septic shock patients
Experiment: Phase IIa clinical trial with nangibotide in septic shock patients: mortality
Assay type: in vivo, human
Conditions: for Sepsis-related mortality at 5 days, % / Sepsis-related mortality at 5 days, number of death / Sepsis-related mortality at 28 days, % / Sepsis-related mortality at 28 days, number of death / Sepsis-related mortality at 90 days, % / Sepsis-related mortality at 90 days, number of death: subgroup sTREM-1 at baseline above the median (433pg/mL); for All-cause mortality at 90 days, number of death / All-cause mortality at 5 days, % / All-cause mortality at 5 days, number of death / All-cause mortality at 28 days, % / All-cause mortality at 28 days, number of death / All-cause mortality at 90 days, %: whole population
Procedure: This was a randomized, double-blind, two-stage, placebo-controlled study. As described in FIG. 7, the study was composed of 2 stages with a similar treatment regimen, in which 0.3, 1.0 or 3.0 mg/kg/h of nangibotide (corresponding to peptide LR12, having an amino acid sequence as set forth in SEQ ID NO: 9, also known as motrem) was tested versus placebo. All patients with a diagnosis of septic shock were considered for study participation. All potential study patients underwent standard care management procedures. Patients with evidence of septic shock according to the Sepsis-3 definition (Singer et al, JAMA 2016) were considered for inclusion (i.e., patients suffering from sepsis and having (i) persisting hypotension requiring vasopressors to maintain their mean arterial pressure ≥65 mm Hg and (ii) a serum lactate level >2 mmol/L (18 mg/dL) despite adequate volume resuscitation).
After screening for eligibility, patients were randomized to one of the treatment arms. Then, they received either a 5 mg/kg loading dose of nangibotide over 15 minutes followed by a continuous intravenous (i.v.) infusion of nangibotide or a matching placebo on top of standard of care. Treatment with study drug was initiated as early as possible, but no later than 24 hours after the onset of septic shock, defined by the start of vasopressor therapy. Patients were treated until 12 (±2) hours after the resolution of their septic shock (defined as vasopressor withdrawal) with a maximum treatment duration of 5 days (120 hours).
Adverse events (AEs) were coded using the MedDRA dictionary version 18.1. Treatment-emergent adverse events (TEAEs) were summarized and listed. Analysis was performed in 49 septic shock patients. The demographic and baseline characteristics were summarized in a descriptive fashion within each population: categorical variables were summarized by contingency tables (frequencies and percentages). sTREM-1 levels at day 1 were also described (mean, standard deviation, standard error, median, quartiles and range, minimum and maximum values). Mortality rates were reported by frequency and percentage. For continuous endpoints, i.e., the sequential organ failure assessment (SOFA), missing data were imputed using LOCF (Last Observation Carry-Forward). For time-to-event analyses, i.e., duration of invasive mechanical ventilation (IMV), duration of continuous renal replacement therapy (CRRT), survival, censored data techniques were utilized. In addition, a sensitivity analysis of time to event data (except survival) was performed using censoring at maximum limit for the corresponding observation period (i.e., either day 28 or day 90). […] The following comparisons were made: each nangibotide dose arm to placebo, all nangibotide doses combined versus placebo, and dose-response using an ordinal trend test. Exploratory composite endpoint: incidence (number and proportion) of patients alive at day 28 and free of vasopressor, free of IMV and free of CRRT were summarized by treatment and compared between treatments with a Fisher's exact test. For pharmacodynamic markers, log transformed data were represented as percentage change from baseline at day 5 or End of Infusion (EOI) if end of infusion was stopped before day 5. […] “All nangibotide” refers to analyses obtained by pooling data from 0.3, 1 and 3 mg/kg/h nangibotide-treated groups.

[1] = 0.3 mg/kg/h (N = 6), 1st dose column
[2] = 0.3 mg/kg/h (N = 6), 2nd dose column
[3] = 0.3 mg/kg/h (N = 8), 3rd dose column
[4] = 0.3 mg/kg/h (N = 12), 3rd dose column
[5] = 0.3 mg/kg/h (N = 13), 1st dose column
[6] = 1.0 mg/kg/h (N = 12), 2nd dose column
[7] = pooled (N = 37), listed as nangibotide

With “nangibotide (LQEEDAGEYGCM; TLT-1 peptide)” the “mortality vs. placebo” value (nangibotide group, whole study) was “consistent trend in the proportion of death patients in favor of nangibotide-treated groups; also recorded: non-significant lower mortality”, the “Sepsis-related mortality at 5 days, %” value [1] was 17% and the “Sepsis-related mortality at 5 days, number of death” value [1] was 1. For the same substance, the “Sepsis-related mortality at 28 days, %” value [1] was 17%, the “Sepsis-related mortality at 28 days, number of death” value [1] was 1 and the “Sepsis-related mortality at 90 days, %” value [1] was 17%. The “Sepsis-related mortality at 90 days, number of death” value [1] was 1, the “Sepsis-related mortality at 5 days, %” value [2] was 17% and the “Sepsis-related mortality at 5 days, number of death” value [2] was 1. The “Sepsis-related mortality at 28 days, %” value [2] was 17%, the “Sepsis-related mortality at 28 days, number of death” value [2] was 1 and the “Sepsis-related mortality at 90 days, %” value [2] was 17%. For the same substance, the “Sepsis-related mortality at 90 days, number of death” value [2] was 1, the “Sepsis-related mortality at 5 days, number of death” value [3] was 2 and the “Sepsis-related mortality at 28 days, number of death” value [3] was 2. The “Sepsis-related mortality at 90 days, number of death” value [3] was 2, the “Sepsis-related mortality at 5 days, %” value (pooled (N = 20)) was 20% and the “Sepsis-related mortality at 5 days, number of death” value (pooled (N = 20)) was 4. The “Sepsis-related mortality at 28 days, %” value (pooled (N = 20)) was 20%, the “Sepsis-related mortality at 28 days, number of death” value (pooled (N = 20)) was 4 and the “Sepsis-related mortality at 90 days, %” value (pooled (N = 20)) was 20%. The “Sepsis-related mortality at 90 days, number of death” value (pooled (N = 20)) was 4, the “All-cause mortality at 90 days, number of death” value (0.3 mg/kg/h (N = 12), 2nd dose column) was 2 and the “All-cause mortality at 5 days, %” value [4] was 17%. The “All-cause mortality at 5 days, number of death” value [4] was 2, the “All-cause mortality at 28 days, %” value [4] was 25% and the “All-cause mortality at 28 days, number of death” value [4] was 3. For the same substance, the “All-cause mortality at 90 days, %” value [4] was 33%, the “All-cause mortality at 90 days, number of death” value [4] was 4 and the “All-cause mortality at 5 days, %” value [5] was 7.7%. For the same substance, the “All-cause mortality at 5 days, number of death” value [5] was 1, the “All-cause mortality at 28 days, %” value [5] was 15% and the “All-cause mortality at 28 days, number of death” value [5] was 2. The “All-cause mortality at 90 days, %” value [5] was 32%, the “All-cause mortality at 90 days, number of death” value [5] was 4 and the “All-cause mortality at 5 days, %” value [6] was 8.3%. The “All-cause mortality at 5 days, number of death” value [6] was 1, the “All-cause mortality at 28 days, %” value [6] was 8.3% and the “All-cause mortality at 28 days, number of death” value [6] was 1. The “All-cause mortality at 90 days, %” value [6] was 17%, the “All-cause mortality at 5 days, %” value (pooled (N = 37)) was 11% and the “All-cause mortality at 5 days, number of death” value (pooled (N = 37)) was 4. The “All-cause mortality at 28 days, %” value (pooled (N = 37)) was 16%, the “All-cause mortality at 28 days, number of death” value (pooled (N = 37)) was 6 and the “All-cause mortality at 90 days, %” value (pooled (N = 37)) was 27%. For the same substance, the “All-cause mortality at 90 days, number of death” value (pooled (N = 37)) was 10, the “All-cause mortality at 28 days, %” value [7] was 14% and the “All-cause mortality at 28 days, number of death” value [7] was 5.
